In US10167261B2, “2-oxo-3,4-dihydroquinolin-6-yl sulphonamide CPDS and their use as plant growth regulators” (THE REGENTS OF THE UNIVERSITY OF CALIFORNIA, priority 2014, dated 2019):

Legend:
[1] = system: Arabidopsis seeds; experiment: Arabidopsis germination inhibition analysis; format: in vivo; conditions: assessed after 3 days at 22° C. in the dark
Experimental: To analyse the effect of compounds on inhibition of germination, Arabidopsis seeds after-ripened for about 4 weeks were surface-sterilized with a solution containing 5% NaClO and 0.05% Tween-20 for 10 minutes, and rinsed with water four times. Sterilized seeds were suspended with 0.1% agar and sowed on 0.8% solidified agar medium containing ½ Murashige and Skoog (MS) salts (Sigma-Aldrich) in the presence of the relevant treatment, stored at 4° C. for 4 days, and then transferred to 22° C. under the dark conditions. Germination was assessed after 3 days.

[2] = system: corn plants (variety NK OCTET); experiment: Water use (WU) of corn plants after foliar spray; format: in vivo; conditions: foliar spray at 500 μM, vs negative control
Experimental: Compounds were tested for their effect on reducing plant water use as follows. The compounds were applied by foliar spray to 12 day old corn plants (variety NK OCTET) grown in controlled environment plant growth chambers. All compounds were applied using an emulsifiable concentrate (EC) formulation that was diluted to the desired concentrations with water containing 0.4% of the adjuvant rape seed methyl ester. Plant water use during the day was assessed by repeated weighing of the pots in which the plants were grown before and after application of the compounds at the indicated times (expressed in days after application (DAA)). The water use data before application was used to correct any differences in water use arising due to non-treatment effects (e.g. due to differences in plant size). The untransformed water use values were subjected to an analysis of covariance, fitting the effect of treatment and using the baseline water use 1 day before application as a covariate. Application of the chemicals (0 DAA) takes place approximately between 8 to 9:30 a.m. WU is measured within day time (chamber light is on 6:00 to 20:00) at these timepoints: 0 DAA AM (10:30-12:50) and 0 DAA PM (14:00-19:50), 1 DAA AM (7:30-12:50) and 1 DAA PM (14:00-19:50) and 2 DAA AM (7:30-12:50). The cumulative total WU (0-2 DAA) is calculated by summing the WU data mentioned above.

[3] = system: corn plants (variety NK OCTET); experiment: Water use (WU) of corn plants after foliar spray; format: in vivo; conditions: foliar spray at 500 μM, vs negative control; remark: listed apart in the source
[4] = biological target: PYL2-HAB1 (Arabidopsis thaliana (Mouse-ear cress), UniProt O80992); experiment: PP2C activity assay, PYL2-HAB1; format: biochemical; conditions: 100 nM PP2C, 200 nM PYR/PYL protein, 4-nitrophenyl phosphate substrate; read-out: IC50 of inhibition of PYL2-HAB1
PYL2-HAB1, sequence (O80992 whole entry, looked up): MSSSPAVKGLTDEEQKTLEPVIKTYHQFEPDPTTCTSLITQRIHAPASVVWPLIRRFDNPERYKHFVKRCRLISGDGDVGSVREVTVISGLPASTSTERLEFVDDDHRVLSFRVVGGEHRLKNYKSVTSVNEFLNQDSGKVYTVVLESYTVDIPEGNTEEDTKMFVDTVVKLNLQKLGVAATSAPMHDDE
PYL2-HAB1, sequence (Q9CAJ0 whole entry partner, looked up): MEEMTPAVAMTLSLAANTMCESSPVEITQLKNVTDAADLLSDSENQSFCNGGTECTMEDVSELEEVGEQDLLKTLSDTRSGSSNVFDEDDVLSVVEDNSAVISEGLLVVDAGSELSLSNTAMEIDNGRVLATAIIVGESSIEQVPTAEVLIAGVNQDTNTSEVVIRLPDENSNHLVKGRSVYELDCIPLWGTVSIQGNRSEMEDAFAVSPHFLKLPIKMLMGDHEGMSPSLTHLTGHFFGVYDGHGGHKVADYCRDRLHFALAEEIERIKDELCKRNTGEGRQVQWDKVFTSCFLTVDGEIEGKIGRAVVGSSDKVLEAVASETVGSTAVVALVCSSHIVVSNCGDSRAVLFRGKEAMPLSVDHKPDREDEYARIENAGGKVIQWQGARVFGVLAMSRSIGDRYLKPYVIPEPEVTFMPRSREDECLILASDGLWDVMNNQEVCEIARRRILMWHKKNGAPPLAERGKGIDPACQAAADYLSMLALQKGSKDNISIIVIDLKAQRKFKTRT
Source text: (§1) The protein HAB1, a type 2 protein phosphatase (PP2C), is inhibited by PYR/PYL proteins in dependence of abscisic acid or other receptor agonists. The potency of a receptor agonists correlates with the level of inhibition of the PP2C, and therefore the IC50 (PYR1-HAB1) can be used to compare the relative activity of different chemical analogues. Since inhibition of PP2C correlates to inhibition of seed-germination and increase in plant water-use efficiency, it serves as a powerful tool to quantify biological potential of a chemical acting as an analogue of abscisic acid.
(§2) HAB1 and PYL proteins were expressed and purified as described in Park et al. ((2009) Science 324(5930):1068-1071), with minor modifications. To obtain GST-HAB1, the HAB1 cDNA was cloned into pGex-2T. Expression was conducted in BL21[DE3]pLysS host cells. Transformed cells were pre-cultured overnight, transferred to LB medium and cultured at 30° C. to culture A600 of ˜0.5.
(§3) The culture was then cooled on ice and MnCl2 added to 4 mM and IPTG added to 0.3 mM. After 16 hours incubation at 15° C., cells were harvested and recombinant proteins were purified on glutathione agarose as described in Park et al. To obtain 6×His-PYL receptor fusion proteins, expression constructs previously described by Okamoto et al. 2013, (PNAS 110(29): 12132-12137) were used. ABA receptors were expressed and purified as described above.
(§4) For the values shown in Table B5, PP2C activity assays using recombinant receptors and PP2Cs were carried out as follows: purified proteins were pre-incubated in 160 μl assay buffer containing 100 mM Tris-HCl-pH7.9, 100 mM NaCl, 3 μg bovine serum albumin, 0.1% 2-mercaptoethanol, 1 mM MnCl2 with ABA or agonists (compounds of the present invention) for 30 minutes at room temperature. Reactions were started by adding 40 μL of a reaction solution containing 25 mM 4-nitrophenyl phosphate in assay buffer after which absorbance measurements were immediately collected using a 405 nm on Wallac plate reader. Reactions contained 100 nM PP2C and 200 nM PYR/PYL proteins. […] For inferring IC50 values, calculations from receptor/PP2C assays containing different concentrations (ranging from 1 μM to 4 nM) were. The obtained dose response data was fit to a log (inhibitor) versus response-(variable slope) model using non-linear regression to infer the IC50s, using Graph Pad Prism 6.0.

[5] = biological target: PYR1-HAB1 (Arabidopsis thaliana (Mouse-ear cress), UniProt O49686); experiment: PP2C activity assay, PYR1-HAB1; format: biochemical; conditions: 100 nM PP2C, 200 nM PYR/PYL protein, 4-nitrophenyl phosphate substrate; read-out: IC50 of inhibition of PYR1-HAB1
PYR1-HAB1, sequence (O49686 whole entry, looked up): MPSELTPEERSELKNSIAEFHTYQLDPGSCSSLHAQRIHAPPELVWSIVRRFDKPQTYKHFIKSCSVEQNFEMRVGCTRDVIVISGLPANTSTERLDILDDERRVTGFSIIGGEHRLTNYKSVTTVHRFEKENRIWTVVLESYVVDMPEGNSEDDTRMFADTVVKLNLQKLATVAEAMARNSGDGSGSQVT
PYR1-HAB1, sequence (Q9CAJ0 whole entry partner, looked up): as the sequence (Q9CAJ0 whole entry partner, looked up) above
Source text: as §1, §2, §3, §4

[6] = system: soybean plants (variety S20-G7); experiment: Water use (WU) of soybean plants after foliar spray; format: in vivo; conditions: repeated experiment (Table B2), rate not given
Experimental: Chemicals were tested for their effect on reducing plant water use (WU) after being applied by foliar sprays onto soybean plants (variety S20-G7)—grown in controlled environment plant growth chambers. All chemicals were applied using an emulsifiable concentrate (EC) formulation that was diluted with water containing additional surfactant (EXTRAVON 1 g/20 L) to the indicated concentrations. Plant WU was assessed by multiple pot weighing processes before and after application of the chemicals at the indicated times (expressed in days after application (DAA)). The WU data before application was used to correct for differences in water use due to non-treatment effects (e.g. due to differences in plant size). The results are expressed compared to negative control treatment (water with EXTRAVON 1 g/20 L).
Application of the chemicals (0 DAA) takes place approximately between 8 to 9:30 a.m. […] The cumulative total WU (0-2 DAA) is calculated by summing the WU data mentioned above.

CCCN1C(=O)CCc2cc(NS(=O)(=O)Cc3ccc(C)cc3)ccc21 [drawing 28, reference compound]
% germination at 1 μM [1]: 46%
% germination at 5 μM [1]: 0%

CCN1C(=O)CCc2cc(NS(=O)(=O)Cc3ccc(C4CC4)cc3)cc(F)c21 [Compound 1.213, 1-(4-cyclopropylphenyl)-N-(1-ethyl-8-fluoro-2-oxo-3,4-dihydroquinolin-6-yl)methanesulfonamide]
Total % WU 0 to 2 DAA ([2]; cumulative): −11.4%
% WU 0 DAA AM [2]: −18.2%
% WU 0 DAA PM [2]: −15.5%
% WU 1 DAA AM [2]: −13.4%
% WU 1 DAA PM [2]: −11.2%
% WU 2 DAA AM [2]: −7.9%
% WU 2 DAA PM [3]: −7%
IC50 [4]: 244 nM
IC50 [5]: 21 nM
% WU 2 DAA PM [6]: −38.7%
Total % WU 0 to 2 DAA ([6]; cumulative): −45.8%

CCCN1C(=O)CCc2cc(NS(=O)(=O)Cc3ccc(C4CC4)cc3)ccc21 [drawing 29]
% germination at 1 μM [1]: 42%
% germination at 5 μM [1]: 0%
